Results reported in article PMC4319564 (Journal of materials chemistry. B, Materials for biology …, 2014).

System: PTX-resistant KB-V1 cervical cancer cells
Assay: Cytotoxicity, SRB assay
Type: cell-based
Conditions: 48 h incubation, 0.01-1000 nM, triplicate

CC(=O)O[C@H]1C(=O)[C@@]2(C)[C@H]([C@H](OC(=O)c3ccccc3)[C@]3(O)C[C@H](OC(=O)[C@H](O)[C@@H](NC(=O)c4ccccc4)c4ccccc4)C(C)=C1C3(C)C)[C@]1(OC(C)=O)CO[C@@H]1C[C@@H]2O [PTX, paclitaxel] was tested, and the “Toxicity (in words)” value was “do not exert any toxicity”.
